Data as given in patent US5574015A, “Isosteric antiherpes peptide derivatives” (priority 1994, dated 1996).
pEC50: −log10 of the molar value.

Tested on: HSV-2
Experiment: Inhibition of Herpes Simplex Virus (HSV-2) replication in cell culture
Type: cell-based, HSV-2 strain HG-52
Description: Inhibition of Herpes Simplex Virus (HSV-2). Replication in Cell Culture
BHK-21/C13 cells (ATCC CCL 10) are incubated for two days in 150 cm^2 T-flasks (1.5×10^6 cells/flask) with alpha-MEM medium (Gibco Canada Inc., Burlington, Ontario, Canada) supplemented with 8% (v/v) fetal bovine serum (FBS, Gibco Canada Inc.). The cells are trypsinized and then transferred to fresh media in a 24 well plate to give 2.5×10^5 cells in 750 μL of media per well. The cells are incubated at 37° for a period of 6 h to allow them to adhere to the plate. Thereafter, the cells are washed once with 500 μL of alpha-MEM supplemented with 0.5% (v/v) FBS and then incubated with 750 μL of the see media (low serum) for 3 days. After this period of serum starvation, the low serum medium is removed and the cells are incubated in 500 μL of BBMT for 2 to 3 hours. {BBMT medium is described by P. Brazeau et al., Proc. Natl. Acad. Sci. USA, 79, 7909 (1982).} Thereafter, the cells are infected with HSV-2 (multiplicity of infection=0.02 PFU/cell) in 100 μL of BBMT medium. (Note: The HSV-2 used was strain HG-52, see Y. Langelier and G. Buttin, J. Gen. Virol., 57, 21 (1981); the virus was stored at -80°) Following 1 h of virus adsorption at 37°, the media is removed and the cells are washed with BBMT (3×250 μL). The cells in each well are incubated with or without (control) appropriate concentrations of the test agent dissolved in 200 μL of BBMT medium. After 29 h of incubation at 37°, the infected cells are harvested by first freezing the plate at -80°, followed by thawing. The cells in each well are scraped off the surface of the well with the help of the melting ice fragments. After complete thawing, the cell suspensions are collected and each well is rinsed with 150 μL of BBMT medium. The viral sample (suspension plus washing) is sonicated gently for 4 min at 4°. Cell debris are removed by centrifugation (1000 times gravity for 10 minutes at 4°). The supernatant is collected and stored at -80° until determination of viral titer.
Viral titration was performed by a modification of the colorimetric assay method of M. Langlois et al., Journal of Biological Standardization, 14, 201 (1986).
More specifically, in a similar manner as described above, BHK-21/C13 cells are trypsinized and transferred to fresh media in a 96 well microtiter plate to give 20,000 cells in 100 μL of media per well. The cells in the prepared plate are incubated at 37° for 2 h. During that time, the viral sample is thawed and sonicated gently for 15 seconds, and log dilutions of the sample are prepared (1/5 sequential: 50 μL of the sample plus 200 μL of BBMT medium, sequential dilutions being done with a multichannel pipette.
On completion of the above 2 hour incubation of the BHK-21/C13 cells, the media is replaced with alpha-MEM medium supplemented with 3% (v/v) FBS. The cells are now ready to be infected with the various sample dilutions of virus. Aliquots (50 μL) of the various dilutions are transferred into the appropriate wells of the plate. The resulting infected cells are incubated for 2 days at 37°. Then 50 μL of a 0.15% (v/v) solution of neutral red dye in Hank's Balanced Salt Solution (pH 7.3, Gibco Canada Inc.) is added to each well. The prepared plate is incubated for 45 min at 37°. Medium from each well is then aspirated and the cells are washed once with 200 μL of Hank's Balanced Salt Solution. […]

[1] = Table V, cell culture assay of example 11
[2] = Table II, BHK-21/C13 cells, 29 h incubation, 50% inhibition of virus replication

Row | Molecule | pEC50 [1] | pEC50 [2] | other results
1 | Pr2 CHNHC(O)--Val--CH2 --(R)-CH(CH2 --C(O)CMe3)C(O)--Asp(cyPn)--NH--(R)-CH(Me)CMe3 | 4.43 |  | 
2 | PhCH2 CH2 C(O)--(N--Me)Val--Tbg--CH2 --(R)-CH(CH2 C(O)CMe3)C(O)--Asp(cyPn)--γMeLeu--NH2 |  | 4.22 | 
3 | Pr2 CHNHC(O)--Tbg--CH2 --(R)-CH(CH2 C(O)--CMe3)C(O)--Asp(cyPn)--γMeLeucinol |  | 4.52 | 
4 | Nc1nc2c(ncn2COCCO)c(=O)[nH]1 [acyclovir, reference compound] |  |  | pEC50 (Human alphaherpesvirus 2, Table III, acyclovir + 2 μM of peptide (title peptide of example 6)): 5.85; pEC50 (Human alphaherpesvirus 2, Table III, acyclovir + 4 μM of peptide (title peptide of example 6)): 6.05; pEC50 (Human alphaherpesvirus 2, Table III, acyclovir + 6 μM of peptide (title peptide of example 6)): 6.05; pEC50 (Human alphaherpesvirus 2, Table III, acyclovir + 8 μM of peptide (title peptide of example 6)): 6.10; pEC50 (Human alphaherpesvirus 2, Table III, acyclovir + 10 μM of peptide (title peptide of example 6)): 6.38; synergism by the isobole method (combination of acyclovir and title peptide of example 6, FIG. 1): positive result; action of the combination of acyclovir and the peptide versus acyclovir alone (combinations with title peptide of example 6, EC50's significantly lower than acyclovir alone): synergistic action
5 | Pr2 CHNHC(O)--Tbg--CH2 --(R)-CH(CH2 C(O)--CMe3)C(O)--Asp(cyPn)--NHCH2 CMe3 |  | 4.62 | 
6 | Pr2 CHNHC(O)--Tbg--CH2 --(R)-CH{CH2 --C(O)--(cyclobutyl)}C(O)--Asp(cyPn)--NHCH2 CMe3 | 4.34 |  | 
7 | Pr2 CHNHC(O)--Tbg--CH2 --(R)-CH--(CH2 C(O)CH2 CMe3)C(CF)--Asp(cyPn)--Leu--OH | 4.10 |  | 
8 | Et2 CHNHC(O)--Tbg--CH2 --(S)-CH{CH2 C(O)--(pyrrolidino)}C(O)--Asp(cyPn)--γMeLeucinol |  | 3.70 | 
9 | Et2 CHNHC(O)--Tbg--CH2 --(R)-CH(CH2 C(O)--CMe3)C(O)--Asp(cyPn)--NHCH2 CMe3 |  | 4.25 | 
10 | Pr2 CHNHC(O)--Tbg--CH2 --(R)-CH(CH2 --C(O)CHMe2)C(O)--Asp(cyPn)--NHCH2 CMe3 | 4.41 |  | 
11 | PhCH2 CH2 C(O)--(N--Me)Val--Tbg--CH2 --(R)-CH(CH2 C(O)CMe3)C(O)--Asp(cyPn)--γMeLeu--OH |  | 4.19 | 
12 | Et2 CHNHC(O)--Tbg--CH2 --(R)-CH{CH2 C(O)--(cyclopentyl)}C(O)--Asp(cyPn)--NHCH2 CMe3 |  | 4.30 | 
13 | Pr2 CHNHC(O)--Tbg--CH2 --(R)-CH{CH2 --C(O)--(1-methylcyclopentyl)}C(O)--Asp(cyPn)--NHCH2 CMe3 | 4.46 |  | 
14 | Me(CH2 =CH--CH2)2 CNHC(O)-Tbg-CH2 --(R)--CH(CH2 C(O)CMe3)C(O)-Asp(cyPn)-NHCH2 CMe3 [Me(CH2 =CHCH2)2 --CNHC(O), NHCH2 CMe3] |  |  | pEC50 (Table IV, cell culture assay of example 11): 4.52
15 | Pr2 CHNHC(O)--Tbg--CH2 --(R)-CH(CH2 --C(O)CMe3)C(O)--Asp{(R)-Pr}--NHCH2 CMe3 | 4.34 |  | 
16 | PhCH2 CH2 C(O)--(N-Me)Val-Tbq-CH2 --(R)--CH(CH2 C(O)CMe3)C(O)-Asp(cyPn)-γMeLeucinol [Title Compound of Example 6] |  | 4.82 | pEC50 (Table III, agent alone, BHK-21/C13 cells): 4.72
17 | Pr2 CHNHC(O)--NH--(S)-CH(CMe2 Et)--C(O)--CH2 --(R)-CH(CH2 C(O)CMe3)C(O)--Asp--(cyPn)--NH--(R)-CH(Me)CMe3 | 4.89 |  | 
18 | Pr2 CHNHC(O)--Tbg--CH2 --(R)-CH(CH2 --C(O)CMe3)C(O)--Asp{(R)-allyl}--NHCH2 CMe3 | 4.21 |  | 
19 | Pr2 CHNHC(O)--Tbg--CH2 --(R)-CH{CH2 --C(O)--(cyclohexyl)}C(O)--Asp(cyPn)--NHCH2 CMe3 | 4.21 |  | 
20 | Pr2 CHNHC(O)--Tbg--CH2 --(R)-CH(CH2 --C(O)CMe2 Et)C(O)--Asb(cyPn)--NHCH2 --CMe3 | 4.48 |  | 
